The values below come from patent US20230129745A1, “COMPOUNDS, COMPOSITIONS, AND METHODS TO TREAT METABOLIC DISEASE” (Board of Supervisors of Louisiana State University and …, priority 2020, published 2023).

The subject of series [1] is 3T3-L1 adipocytes. The settings on record: published data; cited from earlier work.
The next series deals with T1, caspase 1 (Mus musculus, UniProt P29452).
T1 sequence (P29452 119-402): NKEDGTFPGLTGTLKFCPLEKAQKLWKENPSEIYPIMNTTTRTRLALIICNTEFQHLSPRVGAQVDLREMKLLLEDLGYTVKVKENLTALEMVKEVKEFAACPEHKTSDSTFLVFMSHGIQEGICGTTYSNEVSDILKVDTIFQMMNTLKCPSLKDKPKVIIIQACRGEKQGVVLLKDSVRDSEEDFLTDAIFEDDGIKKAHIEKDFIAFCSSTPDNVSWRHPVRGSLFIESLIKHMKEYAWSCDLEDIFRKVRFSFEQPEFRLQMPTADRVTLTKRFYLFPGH
The settings on record: literature; cited from earlier work.

For series [2] the following is noted: 14 days of treatment, db/db mice; cited from earlier work.
The test system of a further series is 3T3-L1 cells. Nature of the series: Lipid accumulation (Oil Red O) in differentiating 3T3-L1 cells. It counts as cell-based, murine. The settings on record: for dose dependence of lipid accumulation activity / lipid accumulation (Oil Red O staining): 2.5, 10, and 25 μM; for lipid accumulation (Oil Red O staining): relative to DMSO; for adipogenesis (Oil Red O and AdipoQ, Fabp4, Pparγ expression): 2.5, 10, or 25 μM, half-strength MDI, FIG. 27. As for the experimental part: Cells were then either fixed and stained with Oil Red O (4 days post-differentiation) (panel A), or harvested (3 days post differentiation) for RNA isolation and gene expression analysis of adiponectin (AdipoQ), fatty acid binding protein 4 (Fabp4), or Ppary (panels B-D). All treatments compared to their respective DMSO controls. The Effects of SCO and ROSI were analyzed by t-test, while the effects of individual test compounds were analyzed by one-way ANOVA. *[…], **P<0.01, ***P<0.001, ****P<0.0001 vs DMSO controls.
Cell Culture and Treatments. 3T3-L1 preadipocytes (murine) were cultured as previously described,^3 and induced to differentiate two days after reaching confluence. For experiments using mature adipocytes, cells were induced with a standard methylxanthine-dexamethasone-insulin (MDI) cocktail, which contains 0.5 mM isobutylmethylxanthine (IBMX), 1 μM dexamethasone (DEX), and 1.72 μM insulin in high-glucose Dulbecco's Modified Eagle Medium (DMEM) supplemented with 10% fetal bovine serum (FBS). IBMX, DEX, insulin, and DMEM were obtained from Sigma-Aldrich (St. Louis, Mo.), and FBS from Hyclone (GE Healthcare Life Sciences, Logan, Utah). For differentiation experiments, cells were induced with half-strength MDI cocktail […]. In both cases, cells were fed with high-glucose DMEM+10% FBS with 0.43 μM insulin three days following MDI induction. Test compounds were dissolved in dimethylsulfoxide (DMSO) as 1000× stocks. For differentiation experiments, cells were treated with the compounds (or DMSO vehicle as a control) at the time of induction and at the first feeding there after (3 days post-MDI). For lipolysis experiments on mature adipocytes, cells were fed with high-glucose DMEM+10% FBS 6 days after MDI and treated with test compounds or DMSO vehicle for three days. On the third day cells were also treated overnight with 0.75 nM tumor necrosis factor alpha (TNFα) (Life Technologies, Carlsbad, Calif.) or its vehicle [0.1% bovine serum albumin (BSA) in phosphate buffered saline (PBS)]. The following morning, the culture medium was replaced with lipolysis incubation medium (low-glucose DMEM+2% BSA) and 0.75 nM TNFα(or vehicle). After 4 hours, conditioned medium and cell lysates were collected.
Lipid Accumulation Assay. Five days after MDI induction, cell monolayers were fixed in 10% neutral buffered formalin (ThermoFisher, Waltham, Mass.) and stained with the neutral lipid stain, Oil Red O (ORO). Plates were scanned to generate images of staining. The ORO was then eluted in isopropyl alcohol, and absorbance of eluates was measured at 520 nm for quantitation.

The test system of series [3] is 3T3-L1 adipocytes. Nature of the series: TNFα-induced lipolysis (glycerol release) in 3T3-L1 adipocytes. It is filed as cell-based, murine. The settings on record: 2.5, 10, or 25 μM, 3-day pretreatment; 0.75 nM TNFα. As for the experimental part:
Fully differentiated 3T3-L1 adipocytes pretreated for three days with 50 μg/ml SCO or varying doses of test compounds (2.5, 10, or 25 μM), then overnight with 0.75 nM TFNα (or vehicle). After 4 hours, the conditioned medium was collected and assayed for glycerol. Data was expressed as fold-change vs TNFα-only treatment. Data from no-TNFα controls and each test compound were analyzed by one-way ANOVA. **P<0.01, ****P<0.0001 vs TNFα-only condition.
Cell Culture and Treatments. 3T3-L1 preadipocytes (murine) were cultured as previously described,^3 and induced to differentiate two days after reaching confluence. For experiments using mature adipocytes, cells were induced with a standard methylxanthine-dexamethasone-insulin (MDI) cocktail, which contains 0.5 mM isobutylmethylxanthine (IBMX), 1 μM dexamethasone (DEX), and 1.72 μM insulin in high-glucose Dulbecco's Modified Eagle Medium (DMEM) supplemented with 10% fetal bovine serum (FBS). IBMX, DEX, insulin, and DMEM were obtained from Sigma-Aldrich (St. Louis, Mo.), and FBS from Hyclone (GE Healthcare Life Sciences, Logan, Utah). […]
FABP4 secretion and lipolysis assays. […] Conditioned media samples were collected after four hours and analyzed for FAPB4 content by immunoblotting. Lipolysis was also assessed by measuring glycerol concentrations in the samples, using free glycerol reagent from Sigma-Aldrich.

Series [4] can be described thus: LC-MS of serum from mice fed HFD containing 1% Artemisia scoparia extract. It is filed as in vivo. The settings on record: archived serum, SCO feeding study in high fat-fed mice, after 4-hour fast. As for the experimental part: Serum samples of control or SCO-treated mice were analyzed directly without enzyme hydrolysis after protein precipitation (top 2 panels) or after glucuronidase enzyme digestion followed by solvent partitioning (lower 2 panels). Chromatograms were created using selected ion monitoring of m/z 315.159-315.161 specific to capillartemisins. In addition to specific mass, the identity of capillartemisin A was confirmed using our in-house library of spectral data that was confirmed using NMR spectroscopy.
To conduct in vivo assessments of SP's bioavailability or pharmacokinetics, we sent six-year-old archived serum samples from our last SCO feeding study in high fat-fed mice for analysis. These samples were collected at the time of sacrifice after a 4-hour fast, in conditions that were not designed for detection of SCO compounds in the circulation. […] However, capillartemisin A was detected (FIG. 12).

A further series addresses T2, PPARγ (Homo sapiens, UniProt P37231).
T2 construct: NIH-3T3 cells stably transfected with full-length PPARγ (A); expressed in transfected cells
T2 sequence (P37231 1-505): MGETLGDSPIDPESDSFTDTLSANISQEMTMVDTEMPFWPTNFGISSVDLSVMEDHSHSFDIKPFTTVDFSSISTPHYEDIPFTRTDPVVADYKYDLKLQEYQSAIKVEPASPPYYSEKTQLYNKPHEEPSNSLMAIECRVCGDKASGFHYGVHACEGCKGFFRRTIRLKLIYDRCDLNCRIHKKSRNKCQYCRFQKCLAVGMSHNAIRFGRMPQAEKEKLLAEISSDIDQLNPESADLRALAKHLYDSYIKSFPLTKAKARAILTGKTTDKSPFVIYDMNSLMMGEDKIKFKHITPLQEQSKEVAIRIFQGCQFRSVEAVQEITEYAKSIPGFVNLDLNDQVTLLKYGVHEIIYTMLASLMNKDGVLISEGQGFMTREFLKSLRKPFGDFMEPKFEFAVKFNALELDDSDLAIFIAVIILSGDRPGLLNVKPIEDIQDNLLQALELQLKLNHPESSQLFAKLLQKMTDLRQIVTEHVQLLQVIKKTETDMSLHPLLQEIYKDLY
The settings on record: Choi et al. 2011; cited from earlier work.

As to `O=C(/C=C/c1ccc(O)c(O)c1)O[C@@H]1CC(O)(C(=O)O)C[C@@H](OC(=O)/C=C/c2ccc(O)c(O)c2)C1O` (stereo partly drawn) [DEQA, 3,5-dicaffeoyl-epi-quinic acid], in the series on 3T3-L1 adipocytes [1], the “adipogenesis / adipocyte differentiation” value is “do not promote adipogenesis”. Further, the “caspase 1 activity” value at caspase 1 is “reduce”.

Take `CN(CCOc1ccc(CC2SC(=O)NC2=O)cc1)c1ccccn1` (stereo not drawn) [rosiglitazone]: the hematocrit entry in series [2] is listed as “decreases hematocrit by as much as three percentage points”.

With `CC(C)=CCc1cc(/C=C/C(=O)O)cc(C/C=C(\C)CO)c1O` [Compound 2, capillartemisin A], in the series on 3T3-L1 cells, the “dose dependence of lipid accumulation activity” value was “active in a dose-dependent manner”; the “lipid accumulation (Oil Red O staining)” value is reported as “enhanced lipid accumulation”; the “adipogenesis (Oil Red O and AdipoQ, Fabp4, Pparγ expression)” value is on record as “promote adipogenesis”. Also, in the series with 3T3-L1 adipocytes [3], the “inhibition of TNFα-induced lipolysis (glycerol release)” value is “not able to significantly mitigate”. In addition, in series [4], the “detection in serum (LC-MS)” value is listed as “detected”.

With `CC(C)=CCc1cc(/C=C/C(=O)O)cc(CC=C(C)C)c1O` [Artepillin C], in the series on 3T3-L1 adipocytes [1], the “adipogenesis / adipocyte differentiation” value is recorded as “enhance adipogenesis”. Also, the PPARγ activation result on PPARγ is listed as “activate”.

As to `CC(C)=CCc1cc(/C=C/C(=O)O)cc(C/C=C(/C)CO)c1O` [Compound 3, capillartemisin B], in the series with 3T3-L1 cells, the “dose dependence of lipid accumulation activity” value was “best activity over the tested dose range”; the “lipid accumulation (Oil Red O staining)” value is on record as “enhanced lipid accumulation”; the “adipogenesis (Oil Red O and AdipoQ, Fabp4, Pparγ expression)” value is “promote adipogenesis”. The “inhibition of TNFα-induced lipolysis (glycerol release)” value with 3T3-L1 adipocytes [3] was “not able to significantly mitigate”. Also, the “detection in serum (LC-MS)” value in series [4] is “did not detect”.
